Laboratory results published in patent publication US5122523A, “N-acylamino acid derivatives and their pharmaceutical compositions” (Banyu Pharmaceutical Co., Ltd., priority 1987, dated 1992).

target: T1, human plasma renin (Homo sapiens, UniProt P00797); test: Renin inhibiting activities (human plasma, angiotensin I by radioimmunoassay); assay type: biochemical; details: pH7.4, 37° C., one hour
T1 construct: from tissue; host or cells: human plasma
T1 sequence (P00797 67-406): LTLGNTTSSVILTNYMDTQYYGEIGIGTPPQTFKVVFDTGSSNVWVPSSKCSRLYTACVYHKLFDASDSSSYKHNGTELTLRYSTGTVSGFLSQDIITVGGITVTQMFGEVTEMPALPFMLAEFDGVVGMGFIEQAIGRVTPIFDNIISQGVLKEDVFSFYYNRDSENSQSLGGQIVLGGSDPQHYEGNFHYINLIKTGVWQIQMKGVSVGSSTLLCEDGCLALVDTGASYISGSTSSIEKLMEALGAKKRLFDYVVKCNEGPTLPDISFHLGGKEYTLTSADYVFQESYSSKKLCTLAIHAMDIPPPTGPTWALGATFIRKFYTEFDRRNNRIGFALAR
Procedure: TEST EXAMPLE 1: Renin inhibiting activities
To 156 μl of a 0.2M sodium phosphate buffer solution (pH7.4), 40 μl of a solution mixture of 34 mM 8-hydroxyquinoline and 100 mM disodium ethylenediamine tetraacetate, 4 μl of dimethyl sulfoxide or a dimethyl sulfoxide solution of an inhibitor and 200 μl of human plasma were added and reacted at 37° C. for one hour. Then, pepstatin was added thereto to terminate the reaction, and the amount of the resulting angiotension I was measured by radio immunoassay whereby the inhibiting activity was determined.

Compound | IC50 [nM]
CCC(C[C@H](O)[C@H](CC(C)C)NC(=O)[C@H](Cc1c[nH]cn1)NC(=O)[C@H](Cc1cccc2ccccc12)CS(=O)(=O)CC)C(=O)NCC(C)C (mixture of isomers) [Example 15, (2RS,4S,5S)-5-{L-N^α -[(2S)-3-ethylsulfonyl-2-(1-naphthylmethyl)propionyl]histidyl}amino-2-ethyl-4-hydroxy-7-methyloctanoic acid isobutylamide] | 0.5
CCCC[C@H](NC(=O)[C@@H](Cc1cccc2ccccc12)CS(=O)(=O)CC)C(=O)N[C@@H](CC(C)C)[C@@H](O)C[C@@H](CC)C(=O)NCCN1CCOCC1 (single isomer, unassigned) [Example 8, (2R or S,4S,5S)-5-{L-N-[(2R or S)-3-ethylsulfonyl-2-(1-naphthylmethyl)propionyl]norleucyl}amino-2-ethyl-4-hydroxy-7-methyloctanoic acid 2-morpholinoethylamide] | 1.5
CCCC[C@H](NC(=O)C(CCCSCC)Cc1cccc2ccccc12)C(=O)N[C@@H](CC(C)C)[C@@H](O)CC(CC)C(=O)NCC(C)C (single isomer, unassigned) [Example 12, (2RS,4S,5S)-5-{L-N-[(2R or S)-5-ethylthio-2-(1-naphthylmethyl)pentanoyl]norleucyl}amino-2-ethyl-4-hydroxy-7-methyloctanoic acid isobutylamide] | 9.7
CCCC[C@H](NC(=O)[C@H](Cc1cccc2ccccc12)CS(=O)(=O)CC)C(=O)N[C@@H](CC1CCCCC1)C(O)C(O)CSC (single isomer, unassigned) [Example 21, (2RS,3R or S,4S)-4-{L-N-[(2S)-3-ethylsulfonyl-2-(1-naphthylmethyl)propionyl]norleucyl}amino-5-cyclohexyl-1-methylthio-2,3-pentanediol] | 8.9
CCCC[C@H](NC(=O)C(Cc1cccc2ccccc12)CS(=O)(=O)CCO)C(=O)N[C@@H](CC1CCCCC1)[C@@H](O)[C@@H](O)CN1CCOCC1 (single isomer, unassigned) [Example 36, (2S,3R,4S)-4-{L-N-[(2S or R)-3-(2-hydroxyethyl)sulfonyl-2-(1-naphthylmethyl)propionyl]norleucyl}amino-5-cyclohexyl-1-morpholino-2,3-pentanediol] | 2.7
CCCC[C@H](NC(=O)[C@H](Cc1cccc2ccccc12)C[S+]([O-])c1ncccn1)C(=O)N[C@@H](CC1CCCCC1)[C@@H](O)[C@@H](O)CN1CCOCC1 (single isomer, unassigned) [Example 42] | 3.6
CCCC[C@H](NC(=O)C(Cc1ccccc1)CS(=O)(=O)C1CCCC1)C(=O)N[C@@H](CC1CCCCC1)[C@@H](O)[C@@H](O)CN1CCOCC1 (single isomer, unassigned) [Example 51(B), (2S,3R,4S)-4-{L-N-[(2S or R)-3-cyclopentanesulfonyl-2-benzylpropionyl]norleucyl}amino-5-cyclohexyl-1-morpholino-2,3-pentanediol] | 2
CCCC[C@H](NC(=O)[C@@H](CSc1nncs1)Cc1cccc2ccccc12)C(=O)N[C@@H](CC(C)C)[C@@H](O)CC(CC)C(=O)NCC(C)C (stereo partly drawn) [Example 5, (2RS,4S,5S),-5-{L-N-[(2S)-3-(1,3,4-thiadiazol-2-yl)thio-2-(1-naphthylmethyl)propionyl]norleucyl}amino-2-ethyl-4-hydroxy-7-methyloctanoic acid isobutylamide] | 1.4
CCC(C[C@H](O)[C@H](CC(C)C)NC(=O)[C@H](Cc1c[nH]cn1)NC(=O)[C@H](Cc1cccc2cccnc12)CS(=O)(=O)CC)C(=O)NCC(C)C (stereo partly drawn) [Example 11, (2RS,4S,5S)-5-{L-N^α -[2(S)-3-ethylsulfonyl-2-(8-quinolylmethyl)propionyl]histidyl}amino-2-ethyl-4-hydroxy-7-methyloctanoic acid isobutylamide] | 3.1
CCCC[C@H](NC(=O)[C@H](Cc1cccc2ccccc12)CS(=O)(=O)CC)C(=O)N[C@@H](CC(C)C)[C@@H](O)[C@@H](O)CN1CCOCC1 [Example 19, (2S,3R,4S)-4-{L-N-[(2S)-3-ethylsulfonyl-2-(1-naphthylmethyl)propionyl]norleucyl}amino-6-methyl-1-morpholino-2,3-heptanediol] | 8.3

Further lines, results first:

IC50 [nM] | Compound
1.6 | CCCC[C@H](NC(=O)[C@@H](CSc1ncccn1)Cc1cccc2ccccc12)C(=O)N[C@@H](CC(C)C)[C@@H](O)CC(CC)C(=O)NCC(C)C (mixture of isomers) [Example 6, (2RS,4S,5S)-5-{L-N-[(2S)-3-(pyrimidin-2-yl)thio-2-(1-naphthylmethyl)propionyl]norleucyl}amino-2-ethyl-4-hydroxy-7-methyloctanoic acid isobutylamide]
0.83 | CCCC[C@H](NC(=O)[C@H](Cc1cccc2ccccc12)C[S+]([O-])c1ncccn1)C(=O)N[C@@H](CC(C)C)[C@@H](O)CC(CC)C(=O)NCC(C)C (mixture of isomers) [Example 7, (2RS,4S,5S)-5-{L-N-[(2S)-3-(pyrimidin-2-yl)sulfinyl-2-(1-naphthylmethyl)propionyl]norleucyl}amino-2-ethyl-4-hydroxy-7-methyloctanoic acid isobutylamide]
2 | CCCC[C@H](NC(=O)[C@H](Cc1cccc2cccnc12)CS(=O)(=O)CC)C(=O)N[C@@H](CC(C)C)[C@@H](O)CC(CC)C(=O)NCC(C)C (mixture of isomers) [Example 10, (2RS,4S,5S)-5-{L-N-[(2S)-3-ethylsulfonyl-2-(8-quinolylmethyl)propionyl]norleucyl}amino-2-ethyl-4-hydroxy-7-methyloctanoic acid isobutylamide]
0.5 | CCCC[C@H](NC(=O)C(Cc1cccc2ccccc12)CS(=O)(=O)CC)C(=O)N[C@@H](CC(C)C)[C@@H](O)CC(CC)C(=O)NCC(C)C (single isomer, unassigned) [Example 1, (2RS,4S,5S)-5-{L-N-[(2R or S)-3-ethylsulfonyl-2-(1-naphthylmethyl)propionyl]norleucyl}amino-2-ethyl-4-hydroxy-7-methyloctanoic acid isobutylamide]
0.17 | CCCC[C@H](NC(=O)C(Cc1cccc2ccccc12)CS(=O)(=O)c1ncccn1)C(=O)N[C@@H](CC(C)C)[C@@H](O)CC(CC)C(=O)NCC(C)C (single isomer, unassigned) [Example 2, (2RS,4S,5S)-5-{L-N-[(2R or S)-3-(pyrimidin-2-yl)sulfonyl-2-(1-naphthylmethyl)propionyl]norleucyl}amino-2-ethyl-4-hydroxy-7-methyloctanoic acid isobutylamide]
0.96 | CCCC[C@H](NC(=O)C(Cc1cccc2ccccc12)CS(=O)(=O)c1nnnn1C)C(=O)N[C@@H](CC(C)C)[C@@H](O)C[C@H](CC)C(=O)NCC(C)C (single isomer, unassigned) [Example 4, (2S,4S,5S)-5-{L-N-[(2R or S)-3-(1-methyltetrazol-5-yl)sulfonyl-2-(1-naphthylmethyl)propionyl]norleucyl}amino-2-ethyl-4-hydroxy-7-methyloctanoic acid isobutylamide]
1.9 | CCCC[C@H](NC(=O)C(CCCS(=O)(=O)CC)Cc1cccc2ccccc12)C(=O)N[C@@H](CC(C)C)[C@@H](O)CC(CC)C(=O)NCC(C)C (single isomer, unassigned) [Example 13, (2RS,4S,5S)-5-{L-N-[(2R or S)-5-ethylsulfonyl-2-(1-naphthylmethyl)pentanoyl]norleucyl}amino-2-ethyl-4-hydroxy-7-methyloctanoic acid isobutylamide]
